# According to ChEMBL document CHEMBL5352395, “The discovery of novel antifungal phenylpyridines derivatives based on CYP53 binding model” (Eur J Med Chem, 2022):
# Calls of active or inactive are those of the source. The rule behind the calls is not given here.
# How the values were obtained:
# Pichia kudriavzevii = test: Antifungal activity against Candida krusei ATCC 6258 assessed as reduction in fungal growth; type: functional
# Candida albicans [1] = test: Antifungal activity against Candida albicans ATCC 10231 assessed as reduction in fungal growth; type: functional
# Nakaseomyces glabratus = test: Antifungal activity against Candida glabrata ATCC 0001 assessed as reduction in fungal growth; type: functional
# Aspergillus fumigatus = test: Antifungal activity against Aspergillus fumigatus KM8001 assessed as reduction in fungal growth; type: functional
# Candida albicans [2] = test: Antifungal activity against Candida albicans 17# assessed as reduction in fungal growth; type: functional
# Candida albicans [3] = test: Antifungal activity against Candida albicans 901 assessed as reduction in fungal growth; type: functional
# [4] = Inhibition of CYP53 in Candida albicans ATCC SC5314 assessed as benzoate level at 8 ug/ml incubated for 16 hrs by LC-MS analysis (Rvb=11.4%); type: ADME; parameters: scale not given: the % may be the effect or the level left; details: at 8 µg/mL
# [5] = Inhibition of CYP53 in Candida albicans ATCC SC5314 assessed as 4-hydroxybenzoate level at 8 ug/ml incubated for 16 hrs by LC-MS analysis (Rvb=82.7%); type: ADME; parameters: scale not given: the % may be the effect or the level left; details: at 8 µg/mL
# [6] = Inhibition of CYP53 in Candida albicans ATCC SC5314 assessed as unknown sterol level at 8 ug/ml incubated for 16 hrs by LC-MS analysis (Rvb=5.9%); type: ADME; parameters: scale not given: the % may be the effect or the level left; details: at 8 µg/mL
# Candida albicans [7] = test: Induction of apoptosis in Candida albicans ATCC SC5314 assessed as live cells incubated for 24 hrs by Annexin V-FITC/PI staining based flow cytometry method (reference value: 92.69%); type: functional
# Candida albicans [8] = test: Induction of apoptosis in Candida albicans ATCC SC5314 assessed as mid apoptotic cells incubated for 24 hrs by Annexin V-FITC/PI staining based flow cytometry method (reference value: 1.03%); type: functional
# Candida albicans [9] = test: Induction of apoptosis in Candida albicans ATCC SC5314 assessed as necrotic cells incubated for 24 hrs by Annexin V-FITC/PI staining based flow cytometry method (reference value: 5.36%); type: functional
# Candida albicans [10] = test: Induction of apoptosis in Candida albicans ATCC SC5314 assessed as late apoptotic cells incubated for 24 hrs by Annexin V-FITC/PI staining based flow cytometry method (reference value: 1.22%); type: functional
# Candida albicans [11] = test: Induction of mitochondrial membrane potential loss in Candida albicans ATCC SC5314 assessed as polarized cells at 1 uM/ml incubated for 24 hrs by JC-1 staining based flow cytometry analysis (reference value: 93.17%); type: functional
# [12] = Toxicity in ip dosed mouse assessed as AST level in plasma administered on day 2,4,6,8 and 10 (reference value: 60.3 +/- 5.4 IU/L); type: organism-based; details: in vivo, 240 h, time 10 day
# [13] = Toxicity in ip dosed mouse assessed as ALT level in plasma administered on day 2,4,6,8 and 10 (reference value: 35.9 +/- 4.6 IU/L); type: organism-based; details: in vivo, 240 h, time 10 day
# [14] = Toxicity in ip dosed mouse assessed as blood urea nitrogen level in plasma administered on day 2,4,6,8 and 10 (reference value: 7.4 +/ -0.6 mmol/L); type: organism-based; details: in vivo, 240 h, time 10 day
# [15] = Toxicity in ip dosed mouse assessed as increase in body weight administered for 10 days; type: organism-based; details: in vivo, 240 h, time 10 day
# [16] = Toxicity in ip dosed mouse assessed as pathological damage in lungs administered on day 2,4,6,8,10 and measured on day 12 by H and E staining based analysis; type: organism-based; details: in vivo, 288 h, time 12 day
# [17] = Toxicity in ip dosed mouse assessed as pathological damage in liver administered on day 2,4,6,8,10 and measured on day 12 by H and E staining based analysis; type: organism-based; details: in vivo, 288 h, time 12 day
# [18] = Toxicity in ip dosed mouse assessed as pathological damage in spleen administered on day 2,4,6,8,10 and measured on day 12 by H and E staining based analysis; type: organism-based; details: in vivo, 288 h, time 12 day
# [19] = Toxicity in ip dosed mouse assessed as pathological damage in kidneys administered on day 2,4,6,8,10 and measured on day 12 by H and E staining based analysis; type: organism-based; details: in vivo, 288 h, time 12 day
# [20] = Toxicity in ip dosed mouse assessed as pathological damage in heart administered on day 2,4,6,8,10 and measured on day 12 by H and E staining based analysis; type: organism-based; details: in vivo, 288 h, time 12 day
# Candida albicans [21] = test: Antifungal activity against Candida albicans ATCC SC5314 assessed as reduction in fungal cell proliferation by measuring cell count (reference value: 235); type: functional
# Candida albicans [22] = test: Antifungal activity against Candida albicans ATCC SC5314 infected in mouse assessed as reduction in fungal infection administered intraperitoneally on day 2,4,6,8 and 10 and measured after 12 days; type: functional, organism-based; details: route ip, time 12.0 day
# Candida albicans [23] = test: Antifungal activity against Candida albicans ATCC SC5314 infected in mouse assessed as reduction in fungal growth in infection region administered intraperitoneally on day 2,4,6,8 and 10 and measured after 12 days by H and E/GMS staining based analysis; type: functional, organism-based; details: route ip, time 12.0 day
# Candida albicans [24] = test: Antifungal activity against Candida albicans ATCC SC5314 infected in mouse assessed as recovery of regular cell distribution administered intraperitoneally on day 2,4,6,8 and 10 and measured after 12 days by H and E/GMS staining based analysis; type: functional, organism-based; details: route ip, time 12.0 day
# Candida albicans [25] = test: Antifungal activity against Candida albicans ATCC SC5314 infected in mouse assessed as disappearance of nuclear aggregation phenomenon administered intraperitoneally on day 2,4,6,8 and 10 and measured after 12 days by H and E/GMS staining based analysis; type: functional, organism-based; details: route ip, time 12.0 day
# Candida albicans [26] = test: Antifungal activity against Candida albicans ATCC SC5314 assessed as induction of ROS production by measuring increase in fluorescence intensity; type: functional, organism-based
# Candida albicans [27] = test: Induction of morphological changes in Candida albicans ATCC SC5314 assessed as disappearance of marginal region of fungal cells at 1 uM/ml incubated for 48 hrs by transmission electron microscopy; type: functional, organism-based
# Candida albicans [28] = test: Induction of morphological changes in Candida albicans ATCC SC5314 assessed as increase in cell permeability at 1 uM/ml incubated for 48 hrs by transmission electron microscopy; type: functional, organism-based
# Candida albicans [29] = test: Induction of morphological changes in Candida albicans ATCC SC5314 assessed as rupture of cell membranes at 1 uM/ml incubated for 72 hrs by transmission electron microscopy; type: functional, organism-based
# Candida albicans [30] = test: Induction of morphological changes in Candida albicans ATCC SC5314 assessed as leakage of endogenous substances in fungal cells at 1 uM/ml incubated for 72 hrs by transmission electron microscopy; type: functional, organism-based
# Candida albicans [31] = test: Antifungal activity against Candida albicans ATCC SC5314 assessed as reduction in fungal cell proliferation by measuring cell count (reference value: 216); type: functional
# Candida albicans [32] = test: Induction of morphological changes in Candida albicans ATCC SC5314 assessed as reduction in cell wall thickness at 1 uM/ml incubated for 48 hrs by transmission electron microscopy; type: functional, organism-based
# Candida albicans [33] = test: Induction of morphological changes in Candida albicans ATCC SC5314 assessed as appearance of cell wall and membrane remnants at 1 uM/ml incubated for 96 hrs by transmission electron microscopy; type: functional, organism-based
structure (smiles),measurement,setting,value
OC(Cn1cncn1)(Cn1cncn1)c1ccc(F)cc1F [FLUCONAZOLE],MIC,Pichia kudriavzevii,0.5 µg/mL
same,MIC,Candida albicans [1],0.5 µg/mL
same,MIC,Nakaseomyces glabratus,0.5 µg/mL
same,MIC,Aspergillus fumigatus,4 µg/mL
same,MIC,Candida albicans [2],> 16 µg/mL
same,MIC,Candida albicans [3],> 16 µg/mL
COC(=O)c1ccc(C(=O)NC(C)C(=O)Nc2ccncc2)cc1 (stereo unspecified),MIC,Pichia kudriavzevii,1 µg/mL
same,MIC,Candida albicans [1],0.5 µg/mL
same,MIC,Nakaseomyces glabratus,2 µg/mL
same,MIC,Aspergillus fumigatus,4 µg/mL
same,MIC,Candida albicans [2],4 µg/mL
same,MIC,Candida albicans [3],1 µg/mL
CCC(C)C(NC(=O)c1ccc(/C=C/C(=O)N2CCC(C)CC2)cc1)C(=O)Nc1ccncc1 (stereo unspecified),MIC,Pichia kudriavzevii,1 µg/mL
same,MIC,Candida albicans [1],2 µg/mL
same,MIC,Nakaseomyces glabratus,2 µg/mL
same,MIC,Aspergillus fumigatus,> 16 µg/mL
same,MIC,Candida albicans [2],4 µg/mL
same,MIC,Candida albicans [3],8 µg/mL
CC1CCN(C(=O)/C=C/c2ccc(C(=O)NC(C)C(=O)Nc3ccncc3)cc2)CC1 (stereo unspecified),MIC,Pichia kudriavzevii,4 µg/mL
same,MIC,Candida albicans [1],2 µg/mL
same,MIC,Nakaseomyces glabratus,4 µg/mL
same,MIC,Aspergillus fumigatus,4 µg/mL
same,MIC,Candida albicans [2],8 µg/mL
same,MIC,Candida albicans [3],4 µg/mL
CC1CCN(C(=O)/C=C/c2ccc(C(=O)NCC(=O)Nc3ccncc3)cc2)CC1,MIC,Pichia kudriavzevii,2 µg/mL
same,MIC,Candida albicans [1],1 µg/mL
same,MIC,Nakaseomyces glabratus,1 µg/mL
same,MIC,Aspergillus fumigatus,8 µg/mL
same,MIC,Candida albicans [2],8 µg/mL
same,MIC,Candida albicans [3],4 µg/mL
CCC(C)C(NC(=O)c1ccc(C(=O)N2CCC(C)CC2)cc1)C(=O)Nc1ccncc1 (stereo unspecified),MIC,Pichia kudriavzevii,1 µg/mL
same,MIC,Candida albicans [1],1 µg/mL
same,MIC,Nakaseomyces glabratus,2 µg/mL
same,MIC,Aspergillus fumigatus,8 µg/mL
same,MIC,Candida albicans [2],4 µg/mL
same,MIC,Candida albicans [3],8 µg/mL
COC(=O)c1ccc(C(=O)NCC(=O)Nc2ccncc2)cc1,MIC,Pichia kudriavzevii,0.5 µg/mL
same,MIC,Candida albicans [1],1 µg/mL
same,MIC,Nakaseomyces glabratus,1 µg/mL
same,MIC,Aspergillus fumigatus,4 µg/mL
same,MIC,Candida albicans [2],2 µg/mL
same,MIC,Candida albicans [3],2 µg/mL
same,Activity,[4],64.1%
same,Activity,[5],29.5%
same,Activity,[6],6.4%
same,Activity,Candida albicans [7],65.51%
same,Activity,Candida albicans [8],0.46%
same,Activity,Candida albicans [9],33.06%
same,Activity,Candida albicans [10],0.97%
same,Activity,Candida albicans [11],65.59%
same,Activity,[12],68.4 IU/L
same,Activity,[13],42.8 IU/L
same,Activity,[14],6.6 mmol/L
same,Activity,[15],Toxic
same,Activity,[16],Non-Toxic
same,Activity,[17],Non-Toxic
same,Activity,[18],Non-Toxic
same,Activity,[19],Non-Toxic
same,Activity,[20],Non-Toxic
same,Activity,Candida albicans [21],112
same,Activity,Candida albicans [22],Active
same,Activity,Candida albicans [23],Active
same,Activity,Candida albicans [24],Active
same,Activity,Candida albicans [25],Active
CC1CCN(C(=O)c2ccc(C(=O)NC(C)C(=O)Nc3ccncc3)cc2)CC1 (stereo unspecified),MIC,Pichia kudriavzevii,1 µg/mL
same,MIC,Candida albicans [1],0.5 µg/mL
same,MIC,Nakaseomyces glabratus,0.5 µg/mL
same,MIC,Aspergillus fumigatus,2 µg/mL
same,MIC,Candida albicans [2],2 µg/mL
same,MIC,Candida albicans [3],2 µg/mL
same,Activity,[4],68.5%
same,Activity,[5],23.3%
same,Activity,[6],8.2%
same,Activity,Candida albicans [7],58.17%
same,Activity,Candida albicans [8],0.31%
same,Activity,Candida albicans [9],40.61%
same,Activity,Candida albicans [10],0.91%
same,Activity,Candida albicans [11],68.3%
same,Activity,[12],53.7 IU/L
same,Activity,[13],47.4 IU/L
same,Activity,[14],6.1 mmol/L
same,Activity,Candida albicans [26],Active
same,Activity,Candida albicans [27],Active
same,Activity,Candida albicans [28],Active
same,Activity,Candida albicans [29],Active
same,Activity,Candida albicans [30],Active
same,Activity,[15],Toxic
same,Activity,[16],Non-Toxic
same,Activity,[17],Non-Toxic
same,Activity,[18],Non-Toxic
same,Activity,[19],Non-Toxic
same,Activity,[20],Non-Toxic
same,Activity,Candida albicans [31],123
same,Activity,Candida albicans [32],Active
same,Activity,Candida albicans [33],Active
same,Activity,Candida albicans [22],Active
same,Activity,Candida albicans [23],Active
same,Activity,Candida albicans [24],Active
same,Activity,Candida albicans [25],Active
CC1CCN(C(=O)c2ccc(C(=O)NCC(=O)Nc3ccncc3)cc2)CC1,MIC,Pichia kudriavzevii,0.5 µg/mL
same,MIC,Candida albicans [1],1 µg/mL
same,MIC,Nakaseomyces glabratus,2 µg/mL
same,MIC,Aspergillus fumigatus,4 µg/mL
same,MIC,Candida albicans [2],4 µg/mL
same,MIC,Candida albicans [3],4 µg/mL
CCC(C)C(NC(=O)c1ccc(C(=O)OC)cc1)C(=O)Nc1ccncc1 (stereo unspecified),MIC,Pichia kudriavzevii,2 µg/mL
same,MIC,Candida albicans [1],4 µg/mL
same,MIC,Nakaseomyces glabratus,4 µg/mL
same,MIC,Aspergillus fumigatus,> 16 µg/mL
same,MIC,Candida albicans [2],2 µg/mL
same,MIC,Candida albicans [3],4 µg/mL
